Assay: Human HepG2 cell viability assay in 384 well format
Assay type: toxicity, cell-based
Parameters: dose 125 nL, time 70.5 hour; concentration not given beside the values
Conditions: HepG2 cells, read-out: Inhibition

| SMILES | cytotoxicity at 70.5 h |
| --- | --- |
| Cc1nc(CN2C[C@@H]3CN(C(=O)c4cnccn4)C[C@@H]3C2)cs1 | -11.6% |
| CC(C)Cc1cc(C(=O)NC(C)(CO)CO)n(C)n1 | -16.8% |
| COc1ccc(OC)c(-c2nc(CN(C)Cc3noc(C)n3)c(C)o2)c1 | -21.2% |
| COc1cccc(CC(=O)N2CCC3(CC2)OCCCC3O)c1OC (stereo not given) | -7.1% |
| Cn1cnnc1S(=O)(=O)C1CCN(C(=O)c2ccsc2)CC1 | -9.56% |
| c1coc(CN2CCn3c(CN4CCOCC4)nnc3C2)c1 | -1.27% |
| COc1ccc([C@@H]2CN(c3cc(C(=O)O)ccn3)C[C@H]2N(C)C)cc1 | 25.7% |
| CCN(CC)c1ccc(C(=O)NCC2(C(N)=O)CCOCC2)cn1 | -4.92% |
| NC(=O)C1CCN(C(=O)NCc2ccccc2Cn2ccnc2)CC1 | -6.43% |
| Cc1nc2cc(O)nn2c(C)c1CCC(=O)NCc1cc(Br)cs1 | -13.2% |
| COc1ccccc1OCCN1CCC(N2CCNC2=O)CC1 | 19.7% |
| Cc1cc(C)n(CC2CCCN2C(=O)c2ccnc(N(C)C)c2)n1 (stereo not given) | 10.6% |
| CCn1ccnc1CN1CCN(CCC(=O)NC2CCCCC2)CC1 | -6.92% |
| CCc1cnc(CN(C)C2CCN(CC(=O)Nc3nccs3)C2)o1 (stereo not given) | 23% |
| CC1=C(CCN2CCCC(O)C2)C(C)(C)CCC1 (stereo not given) | 18.9% |
| Cc1c[nH]c(C(=O)N2CCC(c3nnc(CN(C)CCO)n3C)CC2)c1 | 4.25% |
| Cc1nnc(CSCc2ccc(OCC(F)(F)F)nc2)o1 | -4.42% |
| COc1ccc2c(c1)C(=O)NC1(CC2)CCN(Cc2ccccn2)C1 (stereo not given) | -1% |
| CS(=O)(=O)Nc1cccc(C(=O)Nc2ccc3c(c2)C(=O)NC3)c1 | -6.35% |
| Cc1nc(C)c(C(=O)N2CCCC(c3cnccn3)C2)s1 (stereo not given) | -2.44% |
| CN(CCc1ccccn1)S(=O)(=O)N1CCCC1c1ccco1 (stereo not given) | -10.8% |
| COc1ccc(C)cc1CN1CCCC1Cn1nc(C)nc1C (stereo not given) | -9.81% |
| CC(C)NC(=O)C1c2c(ncn2C(C)C)CCN1Cc1ccccc1 (stereo not given) | -3.52% |

| SMILES | cytotoxicity at 70.5 h |
| --- | --- |
| Cc1cc(N2CCC(N(C)C(=O)c3cccs3)CC2)nc(C)n1 | -18.8% |
| Nc1ccncc1-n1cc(CCO)cn1 | 1.11% |
| CN1CCC(c2nc3ccc(-c4ccccc4)cn3n2)CC1 | -3.45% |
| CC(C(=O)Nc1ccc(N2CCCC2)nc1)n1cccn1 (stereo not given) | -0.411% |
| O=C1CCC(=O)N1CCn1nnc(-c2cccc(Cl)c2)n1 | 1.35% |
| Cc1nnc(NCCC(=O)N(C)Cc2ccccc2)c(C#N)c1C | 3.39% |
| CN(C)c1nc(N2CCCC2)nc2c1CCN(C(=O)c1ccco1)CC2 | -7.2% |
| CO[C@H]1CCN(C(=O)c2ccc3[nH]nnc3c2)C[C@@]12CCCO2 | -6.86% |
| CCOCC1CN(C(=O)c2ccoc2)Cc2nn(C)cc21 (stereo not given) | -6.29% |
| Cc1nn(CCO)cc1CN1CCC(C(C)N2CCCC2)CC1 (stereo not given) | -3.99% |
| CCC(C)S(=O)(=O)N1CCc2nc(C3CCNCC3)ncc2C1 (stereo not given) | -0.105% |
| Cc1ccnc(C2(C)CCCN2S(=O)(=O)c2c(C)noc2C)n1 (stereo not given) | 1.94% |
| CCS(=O)(=O)NCC(=O)NC(c1cc(C)sc1C)C(C)C (stereo not given) | -0.761% |
| CN(C)c1ncccc1CNS(=O)(=O)c1ccc(F)cc1F | -12.9% |
| CCCc1nc(C)cc(N2CCC3(CCC(=O)N(CC(N)=O)C3)CC2)n1 | -8.54% |
| Cc1occc1C(=O)N1Cc2nccn2CC(CN(C)C)C1 (stereo not given) | -8.13% |
| CCc1nnc(CN(C)c2cc(C)nc3c(C)c(C)nn23)o1 | -2.11% |
| CCC/N=c1/c(NC(=O)NCCCOC)c(O)oc2ccccc12 | 29.3% |
| Cc1cccnc1NC(=O)C1CSc2ncc(C)c(=O)n2C1 (stereo not given) | -2.04% |
| CN1CCOC(CNC(=O)CCCc2ccccc2)C1 (stereo not given) | -4.54% |
| COCC1CC2(CCN(C(=O)c3ccco3)CC2)CN1C(C)C (stereo not given) | -13% |
| OC1(CN2CCCC2)CCCN(Cc2cnc(-c3ccccc3)nc2)C1 (stereo not given) | 31.4% |

From ChEMBL document CHEMBL3507680, “University of Dundee, Gates Library screen for HepG2 cell viability”
